Experimental findings from US8815841B2, “1,4-Oxazepines as BACE1 and/or BACE2 inhibitors” (Hoffmann-La Roche Inc., priority 2011, dated 2014) are described below.

Counter-ions that a name gives are not always drawn.

A word on the IC50: it is the concentration that gives 50% inhibition.

Assay [1] concerns the target T1, endogenous cellular BACE2 (human TMEM27 cleavage) in the Ins 1e rat cell line (Rattus norvegicus, UniProt Q6IE75).
T1 construct: endogenous cellular BACE2 in the Ins 1e rat cell line; endogenous in cells; host or cells: INS-TMEM27 (INS1e-derived rat cell line with doxycycline-inducible full-length human TMEM27)
T1 sequence (Q6IE75 63-514): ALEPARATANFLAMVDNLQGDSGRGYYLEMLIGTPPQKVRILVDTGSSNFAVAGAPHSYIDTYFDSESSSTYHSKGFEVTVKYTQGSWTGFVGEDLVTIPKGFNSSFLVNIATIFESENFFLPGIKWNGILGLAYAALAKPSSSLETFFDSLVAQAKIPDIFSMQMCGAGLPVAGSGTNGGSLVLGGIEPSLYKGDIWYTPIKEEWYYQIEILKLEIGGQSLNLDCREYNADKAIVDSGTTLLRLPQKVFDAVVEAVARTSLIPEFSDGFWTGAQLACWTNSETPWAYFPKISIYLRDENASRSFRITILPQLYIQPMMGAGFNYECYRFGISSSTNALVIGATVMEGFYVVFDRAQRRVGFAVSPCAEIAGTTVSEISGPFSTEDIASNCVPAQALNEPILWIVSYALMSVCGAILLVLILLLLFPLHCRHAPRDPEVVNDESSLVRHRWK
As to the kind of experiment: Assay for BACE inhibition by measuring cellular TMEM27 cleavage. The assay is classed as cell-based. The settings on record: INS-TMEM27 cells, shed TMEM27 in culture medium by ELISA. The source says:
Assay for BACE Inhibition by Measuring Cellular TMEM27 Cleavage:
The assay uses the principle of inhibition of human TMEM27 cleavage by endogenous cellular BACE2 in the Ins 1e rat cell line and shedding from the cell surface into the culture medium, followed by detection in an ELISA assay. Inhibition of BACE2 prevents the cleavage and shedding in a dose-dependent manner.
The stable cell line “INS-TMEM27” represents an INSle-derived cell line with inducible expression (using the TetOn system) of full-length hTMEM27 in a doxycycline-dependent manner. The cells are cultured throughout the experiment in RPMI1640+Glutamax (Invitrogen) Penicillin/Streptomycin, 10% Fetal bovine serum, […], […], 100 micrograms/ml G418 and 100 microgram/ml hygromycin and are grown inadherent culture at 37° C. in a standard CO2 cell culture incubator.
INS-TMEM27 cells are seeded in 96-well plates. After 2 days in culture, BACE2 inhibitor is added in a range of concentrations as required by the assay and after a further two hours, doxycycline is added to a final concentration of 500 ng/ml. The cells are incubated for a further 46 hours and the supernatant harvested for detection of shed TMEM27.
An ELISA assay (using a pair of mouse anti-human-TMEM27 antibodies, raised against the extracellular domain of TMEM27) is used for detection of TMEM27 in the culture medium. An EC50 for BACE2 inhibition is calculated using the ELISA readout for each inhibitor concentration with standard curve-fitting software such as XLFit for the Excel spreadsheet program.

The test system of assay [2] is Aβ40 in Human HEK293 cells stably transfected with human APP wt gene (APP695). As to the kind of experiment: Cellular Aβ-lowering assay. It counts as cell-based. The settings on record: HEK293 cells expressing human APP695, Aβ40 in culture supernatant by ELISA after 18-20 hrs; read-out: Cellular assay Abeta40 IC50. As for the experimental part:
Cellular Aβ-lowering Assay:
Human HEK293 cells which are stably transfected with a vector expressing a cDNA of the human APP wt gene (APP695) were used to assess the potency of the compounds in a cellular assay. The cells were seeded in 96-well microtiter plates in cell culture medium (Iscove, plus 10% (v/v) fetal bovine serum, glutamine, penicillin/streptomycin) to about 80% confluence and the compounds were added at a 10× concentration in 1/10 volume of medium without FCS containing 8% DMSO (final concentration of DMSO was kept at 0.8% v/v). After 18-20 hrs incubation at 37° C. and 5% CO2 in a humidified incubator the culture supernatant was harvested for the determination of Aβ40 concentrations. 96 well ELISA plates (e.g., Nunc MaxiSorb) were coated with monoclonal antibody which specifically recognize the C-terminal end of Aβ40 (Brockhaus et al., NeuroReport 9, 1481-1486; 1998). After blocking of non-specific binding sites with e.g. 1% BSA and washing, the culture supernatants were added in suitable dilutions together with a horseradish peroxidase-coupled Aβ detection antibody (e.g., antibody 4G8, Senetek, Maryland Heights, Mo.) and incubated for 5 to 7 hrs. Subsequently the wells of the microtiter plate were washed extensively with Tris-buffered saline containing 0.05% Tween 20 and the assay was developed with tetramethylbenzidine/H2O2 in citric acid buffer. After stopping the reaction with one volume 1 NH2SO4 the reaction was measured in an ELISA reader at 450 nm wavelength. The concentrations of Aβ in the culture supernatants were calculated from a standard curve obtained with known amounts of pure Aβ peptide.
For orientation: An ELISA detects its analyte on a solid surface through an enzyme-linked reagent.

Consider `C[C@]1(c2cc(NC(=O)c3ncc(C(N)=O)cc3F)ccc2F)N=C(N)COCC1(F)F` [Example 1, (R)—N2-(3-(3-Amino-6,6-difluoro-5-methyl-2,5,6,7-tetrahydro-1,4-oxazepin-5-yl)-4-fluorophenyl)-3-fluoropyridine-2,5-dicarboxamide formate], for which the IC50 turned out to be 14600 nM in assay [1] and 350 nM in assay [2].

Consider `C[C@]1(c2cc(NCC3CC3)ccc2F)N=C(N)COC[C@@H]1F` [Example 9, (5R,6R)-5-(5-(Cyclopropylmethylamino)-2-fluorophenyl)-6-fluoro-5-methyl-2,5,6,7-tetrahydro-1,4-oxazepin-3-amine], for which the 50% inhibitory concentration (IC50) in assay [1] was 22.6 nM; in assay [2], 28 nM.

For the molecule `C[C@]1(c2cc(NC(=O)c3ccc(C#CC4CC4)cn3)ccc2F)N=C(N)COCC1(F)F` [Example 6, (R)—N-(3-(3-Amino-6,6-difluoro-5-methyl-2,5,6,7-tetrahydro-1,4-oxazepin-5-yl)-4-fluorophenyl)-5-(cyclopropylethynyl)picolinamide formate], the IC50 in assay [1] was found to be 311 nM; in assay [2] it was 20 nM.

Take `C[C@]1(c2cc(NC(=O)c3ccc(-c4nccs4)cn3)ccc2F)N=C(N)COCC1(F)F` [Example 3, (R)—N-(3-(3-Amino-6,6-difluoro-5-methyl-2,5,6,7-tetrahydro-1,4-oxazepin-5-yl)-4-fluorophenyl)-5-(thiazol-2-yl)picolinamide formate]: the concentration for half-maximal inhibition (IC50) in assay [1] amounted to 5730 nM; in assay [2], 10 nM.

On to `COCC#Cc1ccc(C(=O)Nc2ccc(F)c([C@@]3(C)N=C(N)COCC3(F)F)c2)nc1` [Example 8, (R)—N-(3-(3-Amino-6,6-difluoro-5-methyl-2,5,6,7-tetrahydro-1,4-oxazepin-5-yl)-4-fluorophenyl)-5-(3-methoxyprop-1-ynyl)picolinamide formate], for which the IC50 turned out to be 837 nM in assay [1] and 70 nM in assay [2].

For the molecule `C[C@]1(c2cc(NC(=O)c3ccc(C4CC4)cn3)ccc2F)N=C(N)COCC1(F)F` [Example 7, (R)—N-(3-(3-Amino-6,6-difluoro-5-methyl-2,5,6,7-tetrahydro-1,4-oxazepin-5-yl)-4-fluorophenyl)-5-cyclopropylpicolinamide formate], the values for the IC50 in assay [1] and in assay [2] were 123 nM and 25 nM, respectively.

As to `CSc1cnc(C(=O)Nc2ccc(F)c([C@@]3(C)N=C(N)COCC3(F)F)c2)cn1` [Example 5, (R)—N-(3-(3-Amino-6,6-difluoro-5-methyl-2,5,6,7-tetrahydro-1,4-oxazepin-5-yl)-4-fluorophenyl)-5-(methylthio)pyrazine-2-carboxamide formate], the figures for the IC50 in assay [1] and in assay [2] were 103 nM and 10 nM, respectively.

In the case of `CC[C@]1(c2cc(NC(=O)c3ncoc3C3CC3)ccc2F)N=C(N)COCC1(F)F` [Example 4, (R)—N-(3-(3-Amino-5-ethyl-6,6-difluoro-2,5,6,7-tetrahydro-1,4-oxazepin-5-yl)-4-fluorophenyl)-5-cyclopropyloxazole-4-carboxamide], the IC50 was 662 nM in assay [1] and 2400 nM in assay [2].
